Columns and labels:
hERG = molecular target: T1, hERG (Homo sapiens, UniProt Q12809); experiment: hERG inhibition screen (patch clamp, peak hERG tail current); assay type: cell-based; conditions: for inhibition at 10 µM: human
T1 construct: expressed in transfected cells
Description: Cells were cultured in DMEM/F-12 medium supplemented with 10% fetal bovine serum and 400 μg/mL Geneticin. Cells were grown in 75 cm tissue culture flasks maintained at 37° C. with 5% CO2 and passaged every 3 days using 0.05/0.02% Trypsin/EDTA (confluency of <80%). For the purpose of electrophysiology, cells were seeded in 25 cm2 tissue culture flasks. Three day old cells were harvested using Trypsin/EDTA (0.025/0.01%) as detaching agent and resuspended in external recording solution.
Preweighed quantity of test item was dissolved in tissue culture grade DMSO to prepare a primary stock solution. The strength of the primary stock was 1000× of the intended highest test concentration. Subsequently, working stock solutions of appropriate strengths was prepared by dilution of primary stock with DMSO. The stock solutions were aliquoted into eppendorff tubes and stored at −20° C. freezer (<0° C.) until use. On the day of experiment, aliquots were thawed and used for preparing the assay solution (test solution).
Test solutions were prepared fresh by adding 4 μL of stock solution in to 3996 μL external recording solution such that the final DMSO concentration in the assay solution was 0.1% v/v. Upon addition, solution was inspected carefully against light by naked eye for any indications of precipitation.
Electrophysiological Procedures: • Electrophysiology Setup: Instrument: Port-A-Patch • Patch clamp type: Semiautomatic • Manufacturer: Nanion technologies, GmBH Germany • Electrophysiology chips: Glasscoated NPC-1 chips • Recording Condition: Room temperature • Compound Addition Protocol: Manual addition—20 μL of solution was added on one side of the chip, followed by withdrawal of 20 μL from the other side. This way of addition and withdrawal was repeated at least 4-5 times to ensure actual test concentration is reached. • Test Concentration Exposure Period: Cells were exposed to each test concentration for 3 min or till a steady state block was reached • Voltage Protocol: −40 mV subtraction pulse for 0.5 sec; +40 mV activation pre-pulse for 2 sec; −40 mV test pulse for 2 sec and −80 mV holding potential repeated at every 10 sec • Assay end point: Peak hERG tail current recorded when the voltage was reduced from +40 mV to −40 mV.
The steady state current after the application of 0.1% DMSO was considered as baseline (control current). Steady state current obtained at the end of each test concentration addition was used to calculate the % hERG current inhibited at each concentration. Any rundown due to vehicle addition was corrected to calculate % hERG current inhibition. Each cell acted as its own control. Average current of last 3-5 sweeps of acceptable quality was considered for calculation of % inhibition. Sweeps with artifacts and noise were omitted while calculation.

[1] = Pharmacokinetic screening in male CD-1 mice; assay type: in vivo; conditions: mouse; for C0: read-out: IV PK C0; for Vd: read-out: IV PK Vss; for bioavailability: read-out: Oral PK % F; for Cmax: read-out: Oral PK Cmax; for Tmax: read-out: Oral PK T max
Description: (§1) In this example, the PK profile of several PPARδ agonists disclosed herein in male CD-1 mice or Wistar rats was determined by the methods disclosed in Boxenbaum H. (1980) Interspecies variation in liver weight, hepatic blood flow and antipyrine intrinsic clearance in extrapolation of Benzodiazepines and phenytoin. J. Pharmacokinet Biopharm 8: 165-176. Similar methods can be used to analyze other compounds provided herein.
(§2) All compounds were separately administered to CD-1 mice at 1 mg/kg iv or 3 mg/kg po. The compounds were separately administered to male Wistar rats 1 mg/kg iv or 3 mg/kg po. The species M refers to mouse and R reports to rat in the following table. NA means not available.

[2] = Pharmacokinetic screening in male Wistar rats; conditions: in vivo, rat; for C0: read-out: IV PK C0; for clearance: read-out: IV PK Cl; for Vd: read-out: IV PK Vss; for bioavailability: 3.0 mpk po vs 1.0 mpk iv, read-out: Oral PK % F; for Cmax: read-out: Oral PK Cmax; for Tmax: read-out: Oral PK T max
Description: as §1, §2

Human PPARδ = molecular target: T2, Human PPARδ (Homo sapiens, UniProt Q03181); experiment: PPARδ activity screen (GAL4-PPARδ LBD luciferase transactivation in CV-1 cells); assay type: cell-based; conditions: 24 h compound treatment, luciferase reporter
T2 construct: (PPARδ amino acid 128 to C-terminus); expressed in transfected cells; host or cells: CV-1 cells
T2 sequence (Q03181 128-441 limits assumed): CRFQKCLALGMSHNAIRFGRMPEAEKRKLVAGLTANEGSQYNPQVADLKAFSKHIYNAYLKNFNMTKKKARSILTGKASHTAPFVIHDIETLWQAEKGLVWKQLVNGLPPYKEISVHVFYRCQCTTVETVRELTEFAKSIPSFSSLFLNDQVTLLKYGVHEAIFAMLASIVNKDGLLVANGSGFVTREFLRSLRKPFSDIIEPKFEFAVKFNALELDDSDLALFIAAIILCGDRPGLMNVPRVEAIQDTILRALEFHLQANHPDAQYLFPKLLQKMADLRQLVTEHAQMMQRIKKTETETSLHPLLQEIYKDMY
Description: CV-1 cells were grown in DMEM+10% charcoal stripped FCS. Cells were seeded into 384-well plates the day before transfection to give a confluency of 50-80% at transfection. A total of […] containing 0.64 micrograms pCMX-PPARDelta LBD, 0.1 micrograms pCMXβGal, 0.08 micrograms pGLMH2004 reporter and 0.02 micrograms pCMX empty vector was transfected per well using FuGene transfection reagent according to the manufacturer's instructions (Roche). Cells were allowed to express protein for 48 h followed by addition of compound.
Human PPARδ was used to PCR amplify the PPARδ LBD. […] Ensuing fusions were verified by sequencing.
All compounds were dissolved in DMSO and diluted 1:1000 upon addition to the cells. Compounds were tested in quadruple in concentrations ranging from 0.001 to 100 μM. Cells were treated with compound for 24 h followed by luciferase assay. […]
Medium including test compound was aspirated and washed with PBS. […] Light emission was quantified by counting on a Perkin Elmer Envision reader. […] Beta-galactosidase assays were performed in the microwell plates using a kit from Promega and read in a Perkin Elmer Envision reader. […]
The activity of a compound is calculated as fold induction compared to an untreated sample. […] EC50 values were calculated via non-linear regression using GraphPad PRISM (GraphPad Software, San Diego, Calif.).

[3] = male, CD-1, in vivo, 1 mg/kg, 1.0 mpk iv, read-out: IV PK AUC (0-inf)
[4] = male, CD-1, in vivo, 1 mg/kg, 1.0 mpk iv
[5] = male, CD-1, in vivo, 3 mg/kg, 3.0 mpk po vs 1.0 mpk iv
[6] = male, CD-1, in vivo, 3 mg/kg, 3.0 mpk po, read-out: Oral PK AUC (0-inf)
[7] = male, CD-1, in vivo, 3 mg/kg, 3.0 mpk po
[8] = male, CD-1, in vivo, 3 mg/kg, 3.0 mpk po, read-out: Oral PK T½ (converted)
[9] = 1 mg/kg, 1.0 mpk iv, read-out: IV PK AUC (0-inf)
[10] = 1 mg/kg, 1.0 mpk iv, read-out: IV PK Beta T½ (converted)
[11] = 3 mg/kg, 3.0 mpk po, read-out: Oral PK AUC (0-inf)
[12] = male, CD-1, in vivo, 1 mg/kg, 1.0 mpk iv, read-out: IV PK Beta T½ (converted)
[13] = 3 mg/kg, 3.0 mpk po, read-out: Oral PK T½ (converted)

T1 sequence (Q12809 whole entry): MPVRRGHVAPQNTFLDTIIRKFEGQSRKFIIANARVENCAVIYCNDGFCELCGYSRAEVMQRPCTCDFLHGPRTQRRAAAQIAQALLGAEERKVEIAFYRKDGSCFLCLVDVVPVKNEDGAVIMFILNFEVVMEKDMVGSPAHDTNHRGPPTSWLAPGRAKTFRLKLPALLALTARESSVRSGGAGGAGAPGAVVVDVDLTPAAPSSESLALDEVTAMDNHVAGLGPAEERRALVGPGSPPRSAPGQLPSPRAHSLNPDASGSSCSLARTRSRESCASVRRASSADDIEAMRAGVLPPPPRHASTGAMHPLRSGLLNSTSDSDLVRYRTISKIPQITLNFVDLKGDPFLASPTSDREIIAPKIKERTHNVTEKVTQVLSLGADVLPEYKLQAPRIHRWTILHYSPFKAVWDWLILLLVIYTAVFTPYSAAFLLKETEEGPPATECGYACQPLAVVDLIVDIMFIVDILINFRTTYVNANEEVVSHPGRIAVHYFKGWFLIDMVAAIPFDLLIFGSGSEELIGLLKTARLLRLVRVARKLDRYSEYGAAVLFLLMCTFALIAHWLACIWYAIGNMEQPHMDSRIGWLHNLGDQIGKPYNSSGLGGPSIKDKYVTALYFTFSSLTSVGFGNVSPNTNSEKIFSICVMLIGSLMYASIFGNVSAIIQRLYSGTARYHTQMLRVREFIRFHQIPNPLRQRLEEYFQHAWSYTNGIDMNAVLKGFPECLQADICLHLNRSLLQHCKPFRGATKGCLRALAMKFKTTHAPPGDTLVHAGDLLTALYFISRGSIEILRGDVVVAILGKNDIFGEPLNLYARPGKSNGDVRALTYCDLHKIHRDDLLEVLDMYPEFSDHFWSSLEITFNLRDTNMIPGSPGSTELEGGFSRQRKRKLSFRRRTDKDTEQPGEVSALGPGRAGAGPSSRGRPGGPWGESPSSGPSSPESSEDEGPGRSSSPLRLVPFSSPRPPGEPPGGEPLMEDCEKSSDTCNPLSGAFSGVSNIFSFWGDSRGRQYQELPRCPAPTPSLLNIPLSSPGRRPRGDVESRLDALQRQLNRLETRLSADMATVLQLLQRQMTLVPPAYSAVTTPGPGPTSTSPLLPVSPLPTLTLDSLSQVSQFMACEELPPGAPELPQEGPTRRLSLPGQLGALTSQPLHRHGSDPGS

SMILES | inhibition at 10 µM (hERG) [%] | AUC(0-inf) [1, 3] [ng·h/mL] | C0 [1, 4] [ng/mL] | Vd [1, 4] [L/kg] | bioavailability [1, 5] [%] | AUC(0-inf) [1, 6] [ng·h/mL] | Cmax [1, 7] [ng/mL] | Tmax [1, 7] [h] | half-life [1, 8] [h] | IV PK Cl ([1]; 1.0 mpk iv) [mL/min/kg] | AUC(0-inf) [2, 9] [ng·h/mL] | C0 ([2]; 1 mg/kg, 1.0 mpk iv) [ng/mL] | clearance ([2]; 1 mg/kg, 1.0 mpk iv) [mL/min/kg] | Vd ([2]; 1 mg/kg, 1.0 mpk iv) [L/kg] | bioavailability ([2]; 3 mg/kg) [%] | AUC(0-inf) [2, 11] [ng·h/mL] | Cmax ([2]; 3 mg/kg, 3.0 mpk po) [ng/mL] | Tmax ([2]; 3 mg/kg, 3.0 mpk po) [h] | hERG % Inhibition at 10 μM (hERG) [%] | half-life [1, 12] [h] | other results
C[C@H](CCCOc1ccccc1Cn1c(C(F)(F)F)cnc1-c1ccc(C(F)(F)F)cc1)CC(=O)O [Compound 2a, (3R)-3-methyl-6-(2-((5-(trifluoromethyl)-2-(4-(trifluoromethyl)phenyl)-1H-imidazol-1-yl)methyl)phenoxy)hexanoic acid] | 6 | 3310 | 740 | 1.9 | 70 | 6960 | 1260 | 0.3 | 3.8 | 5.0 | 5040 | 1530 | 3.8 | 1.7 | 100 | 16100 | 1200 | 2.8 | – | – | IV PK Beta T½ ([1]; 1.0 mpk iv): 5.8 h; half-life [2, 10]: 7.1 h
C[C@H](CCCOc1ccccc1Cn1c(Cl)cnc1-c1ccc(C(F)(F)F)cc1)CC(=O)O [Compound 2b, (R)-6-(2-((5-chloro-2-(4-(trifluoromethyl)phenyl)-1H-imidazol-1-yl)methyl)phenoxy)-3-methylhexanoic acid] | – | 1060 | 810 | 3.1 | 100 | 3880 | 2950 | 0.5 | 4.3 | 16 | 2970 | 2120 | 5.8 | 1.2 | 87 | 7790 | 2380 | 0.3 | 3.00 | 3.5 | half-life [2, 10]: 4.8 h; half-life [2, 13]: 4.1 h
C[C@H](CCCOc1ccccc1Cn1c(C#N)cnc1-c1ccc(C(F)(F)F)cc1)CC(=O)O [Compound 2c, (3R)-6-(2-((5-cyano-2-(4-(trifluoromethyl)phenyl)-1H-imidazol-1-yl)methyl)phenoxy)-3-methylhexanoic acid] | – | – | – | – | – | – | – | – | – | – | – | – | – | – | – | – | – | – | 2.50 | – | –
C[C@H](CCCOc1ccccc1Cn1c(C(F)(F)F)cnc1-c1ccc(Cl)cc1)CC(=O)O [Compound 2d, (3R)-6-(2-((2-(4-chlorophenyl)-5-(trifluoromethyl)-1H-imidazol-1-yl)methyl)phenoxy)-3-methylhexanoic acid] | – | 5620 | 1720 | 1.4 | 61 | 5620 | 2830 | 0.3 | 10 | – | – | – | – | – | – | – | – | – | 5.00 | 6.3 | clearance ([1]; male, CD-1, in vivo, 1 mg/kg, 1.0 mpk iv, read-out: IV PK Cl): 5.4 mL/min/kg
C[C@H](CCCOc1ccccc1Cn1c(C(F)(F)F)cnc1-c1ccc(F)cc1)CC(=O)O [Compound 2e, (3R)-6-(2-((2-(4-fluorophenyl)-5-(trifluoromethyl)-1H-imidazol-1-yl)methyl)phenoxy)-3-methylhexanoic acid] | – | – | – | – | – | – | – | – | – | – | – | – | – | – | – | – | – | – | – | – | EC50 (Human PPARδ): 25 nM
C[C@H](CCCOc1ccccc1Cn1c(C(F)(F)F)cnc1-c1ccc(C#N)cc1)CC(=O)O [Compound 2f, (R)-6-(2-((2-(4-cyanophenyl)-5-(trifluoromethyl)-1H-imidazol-1-yl)methyl)phenoxy)-3-methylhexanoic acid] | 3.5 | 6730 | 2450 | 0.6 | – | 14700 | 4240 | 0.3 | 4.9 | 2.5 | 4090 | 1820 | 3 | 3.9 | 100 | 14900 | 4330 | 0.3 | – | 4.1 | Oral PK % F ([1]; 3.0 mpk po vs 1.0 mpk iv): 73%; half-life [2, 13]: 10.3 h
C[C@H](CCCOc1ccccc1Cn1c(C(F)(F)F)cnc1-c1ccc(OC(F)(F)F)cc1)CC(=O)O [Compound 2g, (3R)-3-methyl-6-(2-((2-(4-(trifluoromethoxy)phenyl)-5-(trifluoromethyl)-1H-imidazol-1-yl)methyl)phenoxy)hexanoic acid] | – | – | – | – | – | – | – | – | – | – | – | – | – | – | – | – | – | – | 2.00 | – | –
O=C(O)CCCCCOc1ccccc1Cn1c(C(F)(F)F)cnc1-c1ccc(-c2ccco2)cc1 [Compound 2h, 6-(2-((2-(4-(furan-2-yl)phenyl)-5-(trifluoromethyl)-1H-imidazol-1-yl)methyl)phenoxy)hexanoic acid] | 7 | – | – | – | – | – | – | – | – | – | – | – | – | – | – | – | – | – | – | – | EC50 (Human PPARδ): 2 nM
C[C@H](CCCOc1ccccc1Cn1c(C(F)(F)F)cnc1-c1ccc(-c2ccco2)cc1)CC(=O)O [Compound 2i, (3R)-6-(2-((2-(4-(furan-2-yl)phenyl)-5-(trifluoromethyl)-1H-imidazol-1-yl)methyl)phenoxy)-3-methylhexanoic acid] | – | – | – | – | – | – | – | – | – | – | – | – | – | – | – | – | – | – | 2.30 | – | –
